From patent US6083964A, “Optical resolution of racemic aminoalkylpyridine anticonvulsants and (+) aminoalkylpyridine enantiomers as highly potent orally effective anticonvulsant drugs and excitatory amino acid antagonists” (K and K Biosciences, Inc., priority 1999, dated 2000)

Assays:
[1] = test system: maximal electroshock seizure (MES) in rats; test: Maximal electroshock seizure (MES) test, rats, p.o.; assay type: in vivo, rat (Sprague-Dawley); settings: p.o.; for % protection (lowest and highest) during 4 hour period: 30 mg/kg, 5 time points 0.25-4 hours, 4 rats per point
Source text: (§1) The (+) AAP enantiomers obtained by optical resolution of racemic AAPs and the resulting highly orally effective anticonvulsant compositions of this invention are useful in the treatment of convulsive disorders. […] A series of (+) AAP enantiomers and (-) AAP enantiomers of this invention has been evaluated for anticonvulsant activity by the intraperitoneal (i.p.) and by the oral (p.o.) route using two standard seizure models in the mouse and in the rat, the maximal electroshock seizure (MES) test and the subcutaneous pentylenetetrazol (Metrazole) seizure threshold (scMet) test. […] The following Table 2 presents the results of these anticonvulsant tests with respect to several (+) and (-) AAP enantiomeric compounds derived from optical resolution of racemic AAPs of the present invention. This Table 2 identifies the specific compounds tested by their chemical name and provides the test model, the route of administration, the animal species used, and the anticonvulsant activity and toxicity in terms of ED50 and TD50 values, (the median effective and toxic dose respectively), when intraperitoneally administered to mice, and when orally administered to rats. The Maximal Electroshock Seizure Test (MES): Maximal electroshock seizures are elicited with a 60 Hz alternating current of 50 mA intensity in mice and about 150 mA intensity in rats (5-7 times that necessary to elicit minimal electroshock seizures), delivered for 0.2 sec via corneal electrodes. A drop of 0.9% saline is instilled in the eye prior to application of the electrodes in order to […]. Abolition of the hind limb tonic extension component of the seizure is defined as protection and results are expressed as number of animals protected/number of animals tested. The Subcutaneous Pentylenetetrazol (Metrazole) Seizure Threshold Test (scMet): A 0.5% solution of 85 mg/kg of pentylenetetrazol is administered subcutaneously in the posterior midline 30 minutes or 4 hours after drug administration to the animal. […] This species will be the subject of the complete anticonvulsant quantification test evaluation as described above, but after oral (gavage) administration of the candidate compound.

[2] = Neurotoxicity, rotorod ataxia test, mice, i.p.; set-up: species or system mouse (male Carworth Farms #1); settings: mouse, in vivo, ip, TD50
Protocol: Neurotoxicity is determined by the rotorod ataxia test in mice and by the positional sense test and gait and stance test in the rat. The following Table 2 presents the results of these anticonvulsant tests with respect to several (+) and (-) AAP enantiomeric compounds derived from optical resolution of racemic AAPs of the present invention. This Table 2 identifies the specific compounds tested by their chemical name and provides the test model, the route of administration, the animal species used, and the anticonvulsant activity and toxicity in terms of ED50 and TD50 values, (the median effective and toxic dose respectively), when intraperitoneally administered to mice, and when orally administered to rats. In mice, i.p.: All compounds are emulsified in 0.5% methylcellulose. The solvent has been tested for anticonvulsant and toxic effects and found to introduce no significant bias into the testing of anticonvulsant activity. The compounds are administered intraperitoneally in a volume of 0.01 ml/gm to male Carworth Farms #1 mice weighing about 20 gm. All compounds are tested at least at three dose levels (30, 100 and 300 mg/kg) at 30 minutes and 4 hours after their administration. Neurotoxicity is evaluated in mice by the rotorod ataxia test. The animal is placed on a wooden rod of 1 and 1/8 diameter rotating at 6 rpm. Normal mice can remain on a rod rotating at this speed indefinitely. […] Anticonvulsant Quantification in Mice i.p.: The ED50 values are determined in the MES, scMet and rotorod ataxia test. To determine the ED50 values, five logarithmically spaced doses of the test compound are administered to animals (male Carworth Farms #1 mice) in groups of eight, to cover 0-100% protection, and the dose required to protect 50% of the animals (ED50) together with its 95% confidence limits, is determined graphically.

[3] = test system: maximal electroshock seizure (MES) in mice; test: Maximal electroshock seizure (MES) test, mice, i.p.; assay type: in vivo, mouse (male Carworth Farms #1); settings: for P.I. (protective index, TD50/ED50): MES; for ED50: Mus musculus, ip, MES test, read-out: ED50
Source text: as §1, with “rats. In mice, i.p.: All compounds are emulsified in 0.5% methylcellulose. The solvent has been tested for anticonvulsant and toxic effects and found to introduce no significant bias into the testing of anticonvulsant activity. The compounds are administered intraperitoneally in a volume of 0.01 ml/gm to male Carworth Farms #1 mice weighing about 20 gm. All compounds are tested at least at three dose levels (30, 100 and 300 mg/kg) at 30 minutes and 4 hours after their administration.” for “rats.”, “Anticonvulsant Quantification in Mice i.p.: The ED50 values are determined in” for “This species will be”, “MES, scMet and rotorod ataxia test. To determine the ED50 values, five logarithmically spaced doses” for “subject”, “the” for “the complete anticonvulsant quantification”, “compound are administered to animals (male Carworth Farms #1 mice) in groups of eight, to cover 0-100% protection, and the dose required to protect 50%” for “evaluation as described above, but after oral (gavage) administration”, “animals (ED50) together with its 95% confidence limits, is determined graphically.” for “candidate compound.”

[4] = Neurological deficit, positional sense test and gait and stance test, rats, p.o.; set-up: species or system rat (Sprague-Dawley); settings: rat, in vivo, po
Protocol: Neurotoxicity is determined by the rotorod ataxia test in mice and by the positional sense test and gait and stance test in the rat. The following Table 2 presents the results of these anticonvulsant tests with respect to several (+) and (-) AAP enantiomeric compounds derived from optical resolution of racemic AAPs of the present invention. This Table 2 identifies the specific compounds tested by their chemical name and provides the test model, the route of administration, the animal species used, and the anticonvulsant activity and toxicity in terms of ED50 and TD50 values, (the median effective and toxic dose respectively), when intraperitoneally administered to mice, and when orally administered to rats. […] This species will be the subject of the complete anticonvulsant quantification test evaluation as described above, but after oral (gavage) administration of the candidate compound. […] Neurological deficit in rats is examined by the positional sense test and gait and stance test. […] Inability to do so rapidly indicates a neurologic deficit. In the gait and stance test, a neurologic deficit is indicated by a circular or a zigzag gait, ataxia, abnormal spread of the legs, abnormal body posture, tremor, hyperactivity, lack of exploratory behavior, somnolence, stupor, or catalepsy.

[5] = test system: pentylenetetrazol (Metrazole) seizure threshold in mice; settings: cited from earlier work; for amounts of PTZ required to produce the endpoints (in words): mouse, in vivo
[6] = test system: maximal electroshock seizure (MES) in mice; settings: mouse, in vivo; cited from earlier work

## CC(Nc1ccc(Cl)c(Cl)c1)c1ccncc1 (single isomer, unassigned; (+)) [Compound 5, (+) N-(3,4-Dichlorophenyl)-1-(4-pyridyl)ethylamine]
[1]; Rattus norvegicus, po, MES test, read-out: ED50
  ED50: 32.3 mg/kg
[1]; rat, MES, listed as (3) (+) Enantiomer
  % protection (lowest and highest) during 4 hour period: 0-100%
[1]; rat, MES
  P.I. (protective index, TD50/ED50): > 15.5
[2]
  TD50: > 500 mg/kg
[3]; listed as (3) (+) Enantiomer
  P.I. (protective index, TD50/ED50): > 6.6
[3]
  ED50: 76.1 mg/kg
[4]
  TD50: > 500 mg/kg

## CCC(Nc1ccc(Cl)cc1)c1ccncc1 (single isomer, unassigned; (+)) [Compound 7, (+) N-(4-Chlorophenyl)-1-(4-pyridyl)propylamine]
[1]; rat, MES, listed as (4) (+) Enantiomer
  % protection (lowest and highest) during 4 hour period: 0-75%
[2]
  TD50: 322 mg/kg
[3]; listed as (4) (+) Enantiomer
  P.I. (protective index, TD50/ED50): 2.9
[3]
  ED50: 109 mg/kg

## CCC(Nc1ccc(Cl)c(Cl)c1)c1ccncc1 (single isomer, unassigned; (+)) [Compound 9, (+) N-(3,4-Dichlorophenyl)-1-(4-pyridyl)propylamine]
[1]; rat, MES, listed as (5) (+) Enantiomer
  % protection (lowest and highest) during 4 hour period: 0-75%
[2]
  TD50: 279 mg/kg
[3]; listed as (5) (+) Enantiomer
  P.I. (protective index, TD50/ED50): 3.0
[3]
  ED50: 91.9 mg/kg

## Cc1cccc(C)c1OCC(C)N (centres unmarked) [Mexiletine]
[5]; doses slightly above the MES ED50 in mice
  seizure threshold (in words): lowers seizure threshold at doses slightly above the MES ED50 in mice
[6]
  MES test activity (in words): potent in the MES test

## CCC1(C)CC(=O)NC1=O (centres unmarked) [ethosuximide]
[5]
  amounts of PTZ required to produce the endpoints (in words): increase the amounts of PTZ required to produce the above endpoints

## CCC1(c2ccccc2)C(=O)NC(=O)NC1=O [phenobarbital]
[5]
  amounts of PTZ required to produce the endpoints (in words): increase the amounts of PTZ required to produce the above endpoints

## CCCC(CCC)C(=O)O [valproic acid]
[5]
  amounts of PTZ required to produce the endpoints (in words): increase the amounts of PTZ required to produce the above endpoints
